Tests used:
human 5-HT2A receptor [1] = molecular target: T1, human 5-HT2A receptor (Homo sapiens (Human), UniProt P28223); test: Test 1: binding activity for human 5-HT2A receptor ([3H]Ketanserin, CHO cell membrane fraction)
Protocol: Test 1: Evaluation of Binding Activity for Human 5-HT1A Receptor, Human 5-HT2A Receptor, and Human D2 Receptor
Binding affinity of the present compound for human 5-HT1A receptor, human 5-HT2A receptor, and human D2 receptor was measured by the following procedures.
Each mixture was incubated at room temperature for 60 minutes. Then, the mixture was added quickly on a glassfiber filter plate (Multiscreen FB, Millipore, Inc.) coated with 0.3% aqueous polyethylenimine, and vacuum-filtered. Radioactivity remaining on the filter was measured with a liquid scintillation counter (PerkinElmer, Inc.). Binding inhibition rate was calculated from the following formula.
Ki of each compound was calculated from the following formula. Binding inhibition constant (Ki)=IC50/(1+S/Kd) wherein S is concentration of ligand; Kd is a binding dissociation constant of ligand to membrane, which is calculated from a saturated binding experiment conducted with the same cell membrane. A small Ki value means strong binding ability to a receptor.

human 5-HT2A receptor [2] = molecular target: T1, human 5-HT2A receptor; test: Test 3: antagonist activity for human 5-HT2A receptor (aequorin luminescence, CHO-K1 cells); assay type: cell-based; conditions: CHO-K1 cells, 1 nmol/L 5-HT
Protocol: Test 3: Evaluation of Antagonist Activity for Human 5-HT2A Receptor
Aequorin, Gα16 protein, and each receptor were transiently expressed in CHO-K1 cells (Chinese hamster ovary). […] Each compound dissolved in DMSO was added thereto, and changes in luminescence were measured by FDSS/μCELL functional drug screening system (Hamamatsu Photonics K.K.). Antagonist activity was calculated from the following formula. Antagonist activity (%)=100×{(Luminescence of well in the presence of 1 nmol/L 5-HT−Luminescence of well containing solvent)−(Luminescence of well in the presence of test compound and 1 nmol/L 5-HT−Luminescence of well containing solvent)}/(Luminescence of well in the presence of 1 nmol/L 5-HT−Luminescence of well containing solvent)

[3] = Test 4: metabolic stability test in human hepatic microsome; assay type: in vitro ADME; conditions: 0.1 mg/mL microsome, 0.1 μmol/L compound, 37° C., 30 minutes
How it was run: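 LC-MS quantified remaining parent after 30 min, 37° C, in pH 7.4 25 mmol/L phosphate containing 0.1 mg/mL human hepatic microsomes, 3.2 mmol/L NADPH and 0.1 μmol/L test compound. Value given as −LN(residual ratio)/30/0.1, mL/min/mg protein.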

hERG channel = hERG channel (Homo sapiens (Human), UniProt Q12809); test: Test 6-1: inhibitory activity for hERG channel (auto patch clamp, Qpatch); assay type: cell-based; conditions: whole cell auto patch clamp, hERG-CHO cells; read-out: hERG inhibition IC50
hERG channel, sequence (Q12809 whole entry): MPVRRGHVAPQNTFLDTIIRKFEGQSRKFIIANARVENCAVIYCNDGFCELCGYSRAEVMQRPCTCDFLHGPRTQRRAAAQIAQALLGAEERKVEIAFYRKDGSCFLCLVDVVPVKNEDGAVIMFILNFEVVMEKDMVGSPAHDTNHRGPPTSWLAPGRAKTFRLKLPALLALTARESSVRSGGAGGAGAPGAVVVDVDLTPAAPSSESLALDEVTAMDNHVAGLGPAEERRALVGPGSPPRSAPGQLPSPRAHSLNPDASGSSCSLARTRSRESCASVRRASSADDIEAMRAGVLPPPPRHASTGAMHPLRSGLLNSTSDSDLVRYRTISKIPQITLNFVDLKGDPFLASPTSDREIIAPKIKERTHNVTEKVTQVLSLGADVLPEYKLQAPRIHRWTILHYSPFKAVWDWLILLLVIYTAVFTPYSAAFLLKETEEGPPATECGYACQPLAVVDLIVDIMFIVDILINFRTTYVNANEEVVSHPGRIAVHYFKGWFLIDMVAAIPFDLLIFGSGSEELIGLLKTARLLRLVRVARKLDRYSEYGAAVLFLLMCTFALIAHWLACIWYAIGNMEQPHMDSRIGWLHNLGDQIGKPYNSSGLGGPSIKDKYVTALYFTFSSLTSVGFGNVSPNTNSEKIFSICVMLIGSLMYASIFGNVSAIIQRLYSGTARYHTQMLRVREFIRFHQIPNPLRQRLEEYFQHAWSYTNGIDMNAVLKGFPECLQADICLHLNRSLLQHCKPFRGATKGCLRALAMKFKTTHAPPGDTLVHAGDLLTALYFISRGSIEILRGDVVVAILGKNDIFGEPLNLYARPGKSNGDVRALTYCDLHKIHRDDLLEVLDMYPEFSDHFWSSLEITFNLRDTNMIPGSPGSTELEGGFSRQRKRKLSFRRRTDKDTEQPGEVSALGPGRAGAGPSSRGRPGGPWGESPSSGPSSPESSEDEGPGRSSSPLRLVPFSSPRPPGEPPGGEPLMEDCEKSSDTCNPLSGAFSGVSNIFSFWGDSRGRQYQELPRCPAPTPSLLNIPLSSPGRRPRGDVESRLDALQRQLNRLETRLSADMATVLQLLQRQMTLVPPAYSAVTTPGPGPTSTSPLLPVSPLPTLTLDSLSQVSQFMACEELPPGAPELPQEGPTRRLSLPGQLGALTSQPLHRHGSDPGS
How it was run: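 Whole-cell patch clamp on an automated system using CHO cells stably expressing human hERG (IKr); 15 s pulse interval. Four increasing compound concentrations applied cumulatively; mean peak tail current from last 3 stimulations per concentration used. IC50 from inhibition versus pre-compound current, fitted by Hill equation.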

human 5-HT1A receptor [4] = molecular target: T2, human 5-HT1A receptor (Homo sapiens (Human), UniProt P08908); test: Test 2: agonist activity for human 5-HT1A receptor ([35S]GTPγS binding); assay type: biochemical; conditions: for Emax at 10 µM: agonist activity in the presence of 10 μM of compound, relative to 100 μmol/L 5-HT; for EC50: [35S]GTPγS binding, concentration at which half the activity of Emax was obtained
T2 sequence (P08908 whole entry): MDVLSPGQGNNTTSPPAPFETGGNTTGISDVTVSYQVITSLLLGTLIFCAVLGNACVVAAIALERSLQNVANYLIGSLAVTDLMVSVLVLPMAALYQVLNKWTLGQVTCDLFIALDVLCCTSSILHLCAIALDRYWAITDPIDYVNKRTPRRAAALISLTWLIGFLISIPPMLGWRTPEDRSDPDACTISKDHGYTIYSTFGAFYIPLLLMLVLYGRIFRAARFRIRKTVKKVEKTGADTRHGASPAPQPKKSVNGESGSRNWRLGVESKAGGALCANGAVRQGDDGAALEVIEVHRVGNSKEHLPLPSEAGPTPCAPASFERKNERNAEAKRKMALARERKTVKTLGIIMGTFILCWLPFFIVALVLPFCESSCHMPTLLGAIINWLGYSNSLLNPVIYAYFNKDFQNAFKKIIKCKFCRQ
How it was run: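 [35S]GTPγS binding read-out: after 60 min at room temperature with test compound in GDP buffer, human 5-HT1A receptor CHO membranes were vacuum-filtered and retained radioactivity scintillation-counted. Agonist activity calculated by formula.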

human 5-HT1A receptor [5] = molecular target: T2, human 5-HT1A receptor; test: Test 1: binding activity for human 5-HT1A receptor ([3H]8-OH-DPAT, CHO cell membrane fraction)
How it was run: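 Membranes incubated with [3H]8-OH-DPAT and compound for 60 min at room temperature, then filtered on polyethylenimine-coated glass-fibre plates and counted by liquid scintillation. IC50 from Hill analysis; Ki = IC50/(1+S/Kd), Kd from saturation binding on the same membranes.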

human D2 receptor = human D2 receptor (Homo sapiens (Human), UniProt P14416); test: Test 1: binding activity for human D2 receptor ([3H]Spiperone, CHO cell membrane fraction); conditions: human D2 receptor, [3H]Spiperone
human D2 receptor, sequence (P14416 whole entry): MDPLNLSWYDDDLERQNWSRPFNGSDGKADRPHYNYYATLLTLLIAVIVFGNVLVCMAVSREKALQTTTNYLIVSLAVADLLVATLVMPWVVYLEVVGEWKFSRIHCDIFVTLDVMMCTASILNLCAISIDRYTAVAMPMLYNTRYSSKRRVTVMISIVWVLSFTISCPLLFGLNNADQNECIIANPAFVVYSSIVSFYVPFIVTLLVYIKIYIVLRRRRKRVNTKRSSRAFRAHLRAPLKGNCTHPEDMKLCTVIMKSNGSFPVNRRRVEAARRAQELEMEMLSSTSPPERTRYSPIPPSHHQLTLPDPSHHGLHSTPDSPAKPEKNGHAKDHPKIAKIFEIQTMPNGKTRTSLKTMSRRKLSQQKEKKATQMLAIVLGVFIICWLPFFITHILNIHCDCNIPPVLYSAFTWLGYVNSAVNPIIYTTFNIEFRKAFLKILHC
How it was run: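 Compound displacement of [3H]ketanserin at 5-HT2A or [3H]spiperone at D2 was measured in CHO membrane fractions after 60 min at room temperature, with filtration and scintillation counting. IC50 was converted to Ki by Cheng–Prusoff using ligand concentration and Kd from saturation binding.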

T1 sequence (P28223 whole entry): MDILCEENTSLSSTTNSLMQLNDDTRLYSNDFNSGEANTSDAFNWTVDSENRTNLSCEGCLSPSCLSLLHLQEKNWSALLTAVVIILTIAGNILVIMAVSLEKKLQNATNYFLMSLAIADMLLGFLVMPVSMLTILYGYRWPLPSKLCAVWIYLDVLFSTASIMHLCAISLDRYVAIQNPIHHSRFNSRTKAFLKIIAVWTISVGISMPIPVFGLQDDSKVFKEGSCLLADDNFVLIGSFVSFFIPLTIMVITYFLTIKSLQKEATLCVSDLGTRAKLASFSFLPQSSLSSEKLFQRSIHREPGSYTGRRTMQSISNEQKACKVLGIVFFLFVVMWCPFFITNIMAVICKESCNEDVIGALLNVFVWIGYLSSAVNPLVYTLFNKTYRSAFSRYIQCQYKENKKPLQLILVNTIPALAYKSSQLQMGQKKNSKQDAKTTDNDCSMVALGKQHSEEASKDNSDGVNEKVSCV

Compound | Metabolic stability in human hepatic microsome [3] [mL/min/mg protein] | Emax at 10 µM (human 5-HT1A receptor [4]) [%] | Ki (human 5-HT1A receptor [5]) [nM] | Ki (human D2 receptor) [nM] | EC50 (human 5-HT1A receptor [4]) [nM] | Ki (human 5-HT2A receptor [1]) [nM] | IC50 (human 5-HT2A receptor [2]) [nM] | IC50 (hERG channel) [nM] | IC50 (human 5-HT2A receptor [2]; aequorin luminescence) [nM]
O=C1c2ncccc2CCN1CCN1CCC(c2noc3cc(F)ccc23)CC1 [Example 4] | 0.011 | – | – | – | – | 2.4 | 9.95 | 400 | –
O=C1c2cccnc2CCN1CCN1CCN(c2nsc3ccccc23)CC1 [Example 9] | 0.100 | 43 | – | – | – | 2.24 | – | 2300 | –
O=c1c2cnccc2ccn1CCN1CCC(c2noc3ccccc23)CC1 [Example 13] | <0.01 | – | – | – | – | 8.4 | 71 | – | –
Cc1noc2ccn(CCN3CCN(c4nsc5ccccc45)CC3)c(=O)c12 [Example 53] | 0.436 | 72 | – | – | – | – | 8.03 | 5800 | –
O=C1c2c(Br)nn(Br)c2CCN1CCN1CCN(c2nsc3ccccc23)CC1 [Example 69] | – | 45 | 10.4 | 360 | 33.9 | 1 | – | – | –
CCc1nc2c(o1)C(=O)N(CCN1CCC(c3noc4ccccc34)CC1)CC2 [Example 72] | – | – | – | – | – | 7.8 | 72 | – | –
Cc1cc2c(cn1)C(=O)N(CCN1CCN(c3nsc4ccccc34)CC1)CC2 [Example 108, 2-{2-[4-(1,2-Benzoisothiazol-3-yl)piperazin-1-yl]ethyl}-6-methyl-3,4-dihydro-2,7-naphthyridin-1(2H)-one] | 0.119 | 71 | – | – | – | – | 7.5 | 2800 | –
O=C1c2ncccc2CCN1CCN1CCN(c2noc3cc(F)ccc23)CC1 [Example 123] | <0.05 | 71 | 162 | – | 186 | – | – | 3900 | 22.9
O=C1c2ncccc2CCN1CCN1CCN(c2noc3cc(Cl)ccc23)CC1 [Example 124] | – | – | – | – | – | 77 | – | – | 120
O=C1c2ncccc2CCN1CCN1CCC(c2noc3cc(F)ccc23)CC1 [Example 125] | <0.05 | – | – | – | – | 0.27 | – | < 300 | 7.15
Cc1cc2c(cn1)C(=O)N(CCN1CC=C(c3noc4ccccc34)CC1)CC2 [Example 152] | – | – | – | – | – | 11.4 | – | – | 82.7
Cc1nc2c(o1)C(=O)N(CCN1CCN(c3noc4ccccc34)CC1)CC2 [Example 178] | – | – | – | > 10000 | – | 179 | – | – | 2020

Second part, led by results:

Metabolic stability in human hepatic microsome [3] [mL/min/mg protein] | Emax at 10 µM (human 5-HT1A receptor [4]) [%] | Ki (human 5-HT1A receptor [5]) [nM] | Ki (human D2 receptor) [nM] | EC50 (human 5-HT1A receptor [4]) [nM] | Compound | Ki (human 5-HT2A receptor [1]) [nM] | IC50 (human 5-HT2A receptor [2]) [nM] | IC50 (hERG channel) [nM] | IC50 (human 5-HT2A receptor [2]; aequorin luminescence) [nM]
<0.05 | 48 | 20.3 | 635 | 72.7 | Cc1nc(C)c2c(n1)CCN(CCN1CCC(c3noc4ccccc34)CC1)C2=O [Example 139] | – | – | 3800 | –
<0.05 | 54 | 5.36 | 188 | 36.9 | Cc1ncc2c(n1)CCC(CCN1CCC(c3noc4ccccc34)CC1)C2=O (stereo not drawn) [Example 150] | – | – | 1200 | –
0.121 | 63 | 14 | 114 | 74.2 | Cn1ncc2c1C(=O)N(CCN1CCC(c3noc4ccccc34)CC1)CCC2 [Example 155] | – | – | 700 | –
<0.05 | 46 | 5.17 | 743 | 31 | Cn1cc2c(n1)C(=O)N(CCN1CCC(c3noc4ccccc34)CC1)CC2 [Example 156] | – | – | 2100 | –
0.196 | 61 | 13.8 | 508 | 55 | CC(C)n1cc2c(n1)CCN(CCN1CCN(c3nsc4ccccc34)CC1)C2=O [Example 162] | – | – | 1200 | –
0.118 | 67 | 2.4 | 766 | 11 | CCn1cc2c(n1)CCN(CCN1CCN(c3nsc4ccccc34)CC1)C2=O [Example 163] | – | – | 1400 | –
<0.05 | 57 | 0.17 | 139 | 6.22 | Cc1cc2c(n1C)CCCN(CCN1CCC(c3noc4ccccc34)CC1)C2=O [Example 166] | – | – | 1000 | –
0.413 | 60 | 0.14 | 71 | 0.84 | Cc1cc2c(n1C)CCCN(CCN1CCN(c3nsc4ccccc34)CC1)C2=O [Example 167] | – | – | 1800 | –
0.924 | 52 | 1.02 | 145 | 100 | O=C1c2cn(-c3ccccc3)nc2CCN1CCN1CCN(c2nsc3ccccc23)CC1 [Example 168] | – | – | < 300 | –
<0.05 | 42 | 35.2 | 1680 | 823 | Cn1ccc2c1CCN(CCN1CCN(c3noc4ccccc34)CC1)C2=O [Example 170] | – | – | 7400 | –
<0.05 | 40 | 5.1 | 248 | 30.6 | COc1ncc2c(n1)CCN(CCN1CCC(c3noc4ccccc34)CC1)C2=O [Example 176] | – | – | 1000 | –
0.095 | 36 | 5.63 | 237 | – | COc1ncc2c(n1)CCN(CCN1CCN(c3nsc4ccccc34)CC1)C2=O [Example 177] | – | – | 3700 | –
<0.05 | 44 | 21.9 | > 10000 | 308 | Cc1ccc2c(n1)C(=O)N(CCN1CCN(c3noc4ccccc34)CC1)CC2 [Example 183] | – | – | > 3000 | –
<0.05 | 53 | 7.85 | 703 | 82.6 | O=C1c2nc(F)ccc2CCN1CCN1CCC(c2noc3ccccc23)CC1 [Example 188, 7-{2-[4-(1,2-Benzoisoxazol-3-yl)piperidin-1-yl]ethyl}-2-fluoro-6,7-dihydro-1,7-naphthyridin-8(5H)-one] | – | – | 1900 | –
<0.05 | 14 | 817 | 286 | 4260 | O=C1c2nc[nH]c2CCN1CCN1CCC(c2noc3ccccc23)CC1 [Example 191, 5-{2-[4-(1,2-Benzoisoxazol-3-yl)piperidin-1-yl]ethyl}-6,7-dihydro[1,3]imidazolo[4,5-c]pyridin-4(5H)-one] | – | – | 2600 | –
<0.05 | 11 | 200 | 219 | 7670 | O=C1c2c(Br)n[nH]c2CCN1CCN1CCC(c2noc3ccccc23)CC1 [Example 192, 5-{2-[4-(1,2-Benzoisoxazol-3-yl)piperidin-1-yl]ethyl}-3-bromo-1,5,6,7-tetrahydro-4H-pyrazolo[4,3-c]pyridin-4-one] | – | – | 700 | –

Reference: patent publication US10745401B2, “Condensed lactam derivative” (Sumitomo Dainippon Pharma Co., Ltd., priority 2018, dated 2020)
